These results are taken from article PMC11173529, “Structure–Activity Relationship Studies in a Series of Xanthine Inhibitors of SLACK Potassium Channels” (Molecules, 2024).

A value given as a limit tells only on which side of the number the result lay.

This assay has as its target T1, WT hSLACK (Homo sapiens, UniProt Q5JUK3).
T1 construct: host or cells: CHO-K1
T1 sequence (Q5JUK3 1-1235 isoform Q5JUK3-3): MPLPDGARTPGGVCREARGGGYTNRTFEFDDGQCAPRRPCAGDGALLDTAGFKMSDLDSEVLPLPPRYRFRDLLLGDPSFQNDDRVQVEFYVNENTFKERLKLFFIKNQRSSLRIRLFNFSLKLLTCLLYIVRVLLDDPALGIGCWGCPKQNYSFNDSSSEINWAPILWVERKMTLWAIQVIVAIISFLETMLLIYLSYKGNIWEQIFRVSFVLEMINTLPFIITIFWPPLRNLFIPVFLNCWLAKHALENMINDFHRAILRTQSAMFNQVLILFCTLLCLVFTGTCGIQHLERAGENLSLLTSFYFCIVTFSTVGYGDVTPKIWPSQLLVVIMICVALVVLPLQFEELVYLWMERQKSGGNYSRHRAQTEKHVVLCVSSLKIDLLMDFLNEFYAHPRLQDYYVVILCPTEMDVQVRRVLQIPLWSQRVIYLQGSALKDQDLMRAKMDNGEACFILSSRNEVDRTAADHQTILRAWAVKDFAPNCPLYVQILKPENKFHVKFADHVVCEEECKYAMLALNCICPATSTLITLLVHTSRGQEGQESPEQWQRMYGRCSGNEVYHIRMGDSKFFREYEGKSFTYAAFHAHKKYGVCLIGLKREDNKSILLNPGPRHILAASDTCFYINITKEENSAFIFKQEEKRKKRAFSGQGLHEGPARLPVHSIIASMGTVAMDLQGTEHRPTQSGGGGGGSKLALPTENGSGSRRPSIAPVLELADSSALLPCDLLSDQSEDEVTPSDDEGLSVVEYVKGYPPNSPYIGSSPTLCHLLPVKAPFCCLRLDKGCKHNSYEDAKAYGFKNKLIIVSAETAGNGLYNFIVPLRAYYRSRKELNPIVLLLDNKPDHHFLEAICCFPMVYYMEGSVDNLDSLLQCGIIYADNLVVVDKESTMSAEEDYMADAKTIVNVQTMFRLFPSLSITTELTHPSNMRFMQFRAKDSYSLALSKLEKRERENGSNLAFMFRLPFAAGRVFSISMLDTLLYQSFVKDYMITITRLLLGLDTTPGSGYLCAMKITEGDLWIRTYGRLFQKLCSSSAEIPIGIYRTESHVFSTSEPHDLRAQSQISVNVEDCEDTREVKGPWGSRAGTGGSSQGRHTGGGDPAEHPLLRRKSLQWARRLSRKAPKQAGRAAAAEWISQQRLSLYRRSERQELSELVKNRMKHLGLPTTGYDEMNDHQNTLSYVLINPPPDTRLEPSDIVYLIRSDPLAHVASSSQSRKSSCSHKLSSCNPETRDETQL
Kind of assay: Whole-cell automated patch-clamp (APC) in CHO cells stably expressing WT hSLACK. As to conditions: for SLACK Imax: maximum inhibition at 30 µM test compound standardized to VU0606170 (set at 100%), WT hSLACK; for IC50: whole-cell APC, CHO cells stably expressing WT hSLACK, averages n ≥ 3, read-out: SLACK IC50. The class given is cell-based. How it is done:
All new analogs were tested in our APC assay using CHO cells stably expressing WT SLACK using a concentration-response format with concentrations ranging from 0.125 to 30 μM in half-log steps and a minimum of three cells (replicates) per concentration series. […] Still, there were some notable results. For example, substitution at the 4-position was largely unfavorable regardless of the nature of the substituent (21, 24, 27, 30, and 33) apart from the 4-fluoro analog 18. […] As the trifluoromethyl group is similar in electronegativity to chlorine, but larger than both methyl and chlorine, perhaps the steric bulk of the trifluoromethyl is to blame for the poor potency of these analogs. With the exception of the fluoro (16–18) and cyano (28–30) analogs, substitution at the 3-position was favorable for SLACK activity, with 3-methoxy analog 32 standing out in this set.
Stably transfected monoclonal HEK293 cell lines expressing Slick, Maxi-K α1/β3, Maxi-K α1/β4, CaV3.2, GIRK 1/2, KV2.1, KV7.2, NaV1.7, and TASK-1 were generated as previously described. Stably transfected monoclonal HEK293 cell lines expressing hERG were generated as previously described. CHO-K1 cells expressing human Slack and disease-associated human Slack mutations, G288S and A934T, were generated by transfecting a PiggyBac TRE mammalian expression vector (VectorBuilder, Chicago, IL, USA) containing KCNT1. FuGENE 6 (Promega, Madison, WI, USA) transfection reagent and protocol, together with Opti-MEM (Thermo Fisher Scientific, Walkham, MA, USA), were utilized.
Automated patch-clamp recording was performed with a SyncroPatch 768 PE system (Nanion, Munich, Germany) as previously described. Whole-cell recordings were performed at room temperature. Cells were harvested by first washing with PBS without Mg^2+ or Ca^2+ (Gibco, Billings, MT, USA) to remove cell culture media, followed by dissociation with TryPLE (Gibco, Billings, MT, USA). Cells were then resuspended and diluted to 100,000 cells/mL in external solution. External solution contained 105 mM NaCl, 4 mM KCl, 1 mM MgCl2, 5 mM CaCl2, 10 mM HEPES, and 40 mM N-Methyl-D-glucamine chloride, titrated to pH of 7.4 and osmolarity of 300 mOsm/kg; internal solution contained 70 mM NaCl, 70 mM KF, 10 mM KCl, 5 mM EGTA, and 5 mM HEPES, titrated to a pH of 7.2 and osmolarity of 295 mOsm/kg.
The APC protocol was set as follows: Cells were held at a […] of −80 mV for 100 ms, then a ramp protocol was performed from −100 mV to 80 mV at 0.4 mV/ms, followed by holding the cell at −80 mV for another 100 ms, then steps were performed at −20 mV, 0 mV, +20 mV, +40 mV, and +60 mV for 100 ms of each step. Whole-cell currents were measured at 0 mV and normalized to current after external buffer addition. […] To obtain the concentration-response relationship graphs and IC50 values, we take the median value of the last 7 current amplitude values obtained for each set of data points collected for a given concentration at a particular step.

With `Cc1ccc(CN(C)c2nc3c(c(=O)n(Cc4ccccc4)c(=O)n3C)n2C)cc1` [Analog 55], the “SLACK Imax” value is listed as 100% and the IC50 was 1800 nM.
As for `Cn1c(NCc2ccccc2)nc2c1c(=O)n(Cc1ccccc1)c(=O)n2C` [Analog 46a], the “SLACK Imax” value is reported as 88% and the IC50 came to 6000 nM.
For `C[C@H](c1ccccc1)N(C)c1nc2c(c(=O)n(Cc3ccccc3)c(=O)n2C)n1C` [Analog 65], in that order: 100% and 1600 nM.
For `CN(Cc1ccccc1)c1nc2c(c(=O)n(Cc3ccccc3C#N)c(=O)n2C)n1C` [Analog 28], in that order: 99% and 2500 nM.
Turning to `CN(Cc1ccccc1Cl)c1nc2c(c(=O)n(Cc3ccccc3)c(=O)n2C)n1C` [Analog 50], the “SLACK Imax” value worked out at 100% and the IC50 stood at 3000 nM.
The like results for `COc1ccccc1Cn1c(=O)c2c(nc(N(C)Cc3ccccc3)n2C)n(C)c1=O` [Analog 31] were, in that order, 100% and 1300 nM.
For `CN(Cc1ccc(Cl)cc1)c1nc2c(c(=O)n(Cc3ccccc3)c(=O)n2C)n1C` [Analog 52], the “SLACK Imax” value amounted to 100% and the IC50 was 2300 nM.
The like results for `CN(Cc1ccccc1)c1nc2c(c(=O)n(Cc3ccc(C(F)(F)F)cc3)c(=O)n2C)n1C` [Analog 27] were, in that order, 79% and 9700 nM.
The like results for `Cn1c(N2CCc3ccccc3C2)nc2c1c(=O)n(Cc1ccccc1)c(=O)n2C` [Analog 75] were, in that order, 100% and 2800 nM.
Consider `CN(Cc1ccccc1)c1nc2c(c(=O)n(Cc3ccc(Cl)cc3)c(=O)n2C)n1C` [Analog 21], for which the “SLACK Imax” value was 100% and the IC50 is 2600 nM.
Regarding `Cc1cccc(Cn2c(=O)c3c(nc(N(C)Cc4ccccc4)n3C)n(C)c2=O)c1` [Analog 23], the “SLACK Imax” value is given as 100% and the IC50 turned out to be 1500 nM.
For `C[C@@H](c1ccccc1)N(C)c1nc2c(c(=O)n(Cc3ccccc3)c(=O)n2C)n1C` [Analog 66], in that order: 50% and greater than 10000 nM.
In the case of `CN(Cc1ccccc1)c1nc2c(c(=O)n(Cc3ccccc3Cl)c(=O)n2C)n1C` [Analog 19], the “SLACK Imax” value was found to be 89% and the IC50 was 2000 nM.
Consider `CN(Cc1ccccc1)c1nc2c(c(=O)n(Cc3ccc(F)cc3)c(=O)n2C)n1C` [Analog 18], for which the “SLACK Imax” value was 100% and the IC50 was 1300 nM.
`Cc1ccccc1CN(C)c1nc2c(c(=O)n(Cc3ccccc3)c(=O)n2C)n1C` [Analog 53]: the “SLACK Imax” value came out at 100% and the IC50 amounted to 9900 nM.
With `CCn1c(N(C)Cc2ccccc2)nc2c1c(=O)n(Cc1ccccc1)c(=O)n2C` [Analog 41], the “SLACK Imax” value turned out to be 87% and the IC50 was greater than 10000 nM.
As for `CN(Cc1cccnc1)c1nc2c(c(=O)n(Cc3ccccc3)c(=O)n2C)n1C` [Analog 63], the “SLACK Imax” value was determined as 20% and the IC50 was greater than 10000 nM.
As to `COc1cccc(CN(C)c2nc3c(c(=O)n(Cc4ccccc4)c(=O)n3C)n2C)c1` [Analog 60], the “SLACK Imax” value is recorded as 100% and the IC50 was found to be 2700 nM.
In the case of `CN(Cc1cccc(C(F)(F)F)c1)c1nc2c(c(=O)n(Cc3ccccc3)c(=O)n2C)n1C` [Analog 57], the “SLACK Imax” value came out at 101% and the IC50 stood at 1500 nM.
For `CN(Cc1ccccc1C(F)(F)F)c1nc2c(c(=O)n(Cc3ccccc3)c(=O)n2C)n1C` [Analog 56], in that order: 100% and 1900 nM.
For `Cc1cccc(CN(C)c2nc3c(c(=O)n(Cc4ccccc4)c(=O)n3C)n2C)c1` [Analog 54], in that order: 100% and 2000 nM.
Regarding `Cc1ccc(Cn2c(=O)c3c(nc(N(C)Cc4ccccc4)n3C)n(C)c2=O)cc1` [Analog 24], the “SLACK Imax” value stood at 102% and the IC50 was determined as 5500 nM.
For `CCCN(Cc1ccccc1)c1nc2c(c(=O)n(Cc3ccccc3)c(=O)n2C)n1C` [Analog 68], in that order: 100% and 1300 nM.
`COc1ccccc1CN(C)c1nc2c(c(=O)n(Cc3ccccc3)c(=O)n2C)n1C` [Analog 59]: the “SLACK Imax” value is 101% and the IC50 was determined as 4700 nM.
For the compound `Cn1c(N(Cc2ccccc2)Cc2ccccc2)nc2c1c(=O)n(Cc1ccccc1)c(=O)n2C` [Analog 72], the “SLACK Imax” value was 100% and the IC50 was 1400 nM.
The like results for `CN(Cc1ccccc1)c1nc2c(c(=O)n(Cc3ccccc3C(F)(F)F)c(=O)n2C)n1C` [Analog 25] were, in that order, 70% and greater than 10000 nM.
As for `CN(Cc1ccccc1)c1nc2c(c(=O)n(Cc3ccccc3)c(=O)n2C)n1C` [Analog 8], the “SLACK Imax” value is recorded as 100% and the IC50 was 1700 nM.
For `Cn1c(CCc2ccccc2)nc2c1c(=O)n(Cc1ccccc1)c(=O)n2C` [Analog 77], the “SLACK Imax” value worked out at 103% and the IC50 amounted to 7000 nM.
On to `Cn1c(N2Cc3ccccc3C2)nc2c1c(=O)n(Cc1ccccc1)c(=O)n2C` [Analog 74], for which the “SLACK activity (in words)” value (APC, WT SLACK) was “inactive”.
Turning to `CN(Cc1ccccc1)c1nc2c(c(=O)n(Cc3cccc(C(F)(F)F)c3)c(=O)n2C)n1C` [Analog 26], the “SLACK Imax” value is on record as 100% and the IC50 is 4200 nM.
The like results for `CN(Cc1ccccc1)c1nc2c(c(=O)n(Cc3ccc(C#N)cc3)c(=O)n2C)n1C` [Analog 30] were, in that order, 100% and 2400 nM.
For `CN(Cc1ccncc1)c1nc2c(c(=O)n(Cc3ccccc3)c(=O)n2C)n1C` [Analog 64], in that order: 70% and greater than 10000 nM.
The like results for `CN(Cc1ccccn1)c1nc2c(c(=O)n(Cc3ccccc3)c(=O)n2C)n1C` [Analog 62] were, in that order, 107% and greater than 10000 nM.
For `CN(Cc1ccc(F)cc1)c1nc2c(c(=O)n(Cc3ccccc3)c(=O)n2C)n1C` [Analog 49], the “SLACK Imax” value came out at 100% and the IC50 was determined as 1600 nM.
